Key:
[1] = tested on: ischemia-reperfusion; details: rat and swine models of ischemia-reperfusion; cited from earlier work
[2] = tested on: coronary occlusion and reperfusion; details: rat, in vivo; cited from earlier work
[3] = tested on: coronary occlusion and reperfusion; details: oral, 24 hours and 2 hours before coronary occlusion; cited from earlier work
[4] = tested on: open-chest swine model of VF; assay: open-chest swine model of electrically-induced VF and simulated CPR using extracorporeal circulation; format: in vivo
Description: The studies were conducted in an open-chest swine model of electrically-induced VF and simulated CPR with controlled coronary blood flow (CBF) using extracorporeal circulation (ECC).^13,14 With a high degree of precision, the ECC model allowed subjecting the myocardium to low-flow reperfusion (as CPR does) after a period of ischemia during untreated VF (as it typically occurs in patients). The model reproduces adverse myocardial effects observed during CPR including increased myocardial wall thickness that is consistently ameliorated by NHE-1 inhibition. In addition, the model also reproduces post-resuscitation myocardial dysfunction which is also ameliorated by NHE-1 inhibition. In addition, the open-chest model allows for direct assessment of the myocardium via a micro-tip pressure transducer in the left ventricle to measure left ventricular pressure with high fidelity; a flow probe around the left anterior descending coronary artery to measure coronary blood flow as a surrogate of total myocardial blood flow; ultrasonic piezoelectric crystals to continuously measure the diameter (short-axis) and wall thickness of the left ventricle at the level of the mitral valve; and echocardiography to measure left ventricle volumes and wall thickness through a 4-chamber and 2-chamber views of the heart.
Therefore, we chose an EMPA dose expected to achieve a blood concentration of 1 μM after initial blood volume distribution in our swine model of VF and resuscitation by ECC. For this purpose, a stock solution was first prepared by dissolving 90.2 mg of EMPA (Sigma, St. Louis, Mo., MW 450.92) in 10 ml of 100% DMSO to obtain a 20 mM solution. This stock solution was diluted in saline to 200 μM. Given an estimated blood volume of 2.5 L for a 40-kg pig, 2.5 μmoles (i.e., 12.5 ml of the 200 μM solution) were given in bolus dose to attain the target blood concentration of 1 μM EMPA after initial blood volume distribution. […] Control pigs received 12.5 ml of 0.9% NaCl.
The bolus of EMPA or control solution was given at minute 9 of untreated VF through the venous port of the extracorporeal circuit. VF was maintained untreated for 10 minutes. ECC was then initiated and maintained for an additional 16 minutes. The ECC flow was titrated with the aid of a closed-loop system to generate and maintain a CBF of 25% of the baseline CBF, measured in the left anterior descending coronary artery.^20
Six male domestic pigs (38.2 to 43.3 kg) were fasted overnight, sedated with ketamine hydrochloride (30 mg/kg intramuscular), and anesthetized with propofol (2 mg/kg through an ear vein). The trachea was intubated with a size-7.5 orotracheal tube and positive pressure ventilation initiated with 50% oxygen using a volume-controlled ventilator (840 Ventilator System, Nellcor Puritan Bennett, Boulder, Colo.) set to deliver 10 mL/kg at a peak flow of 60 L/min with an FiO2 of 0.5. The respiratory rate was adjusted to attain an end-tidal PCO2 (PETCO2) between 38 and 42 mmHg. Anesthesia was maintained using isoflurane (1.75%-2.75%). Rectal temperature was maintained between 37.5 and 38.5° C. with a servo-controlled water-circulated blanket (Blanketrol II, Cincinnati Sub-Zero, Cincinnati, Ohio). The ECG signal was obtained during spontaneous circulation through leads placed on the right forelimb, left forelimb, and left hindlimb. During VF, the ECG signal was obtained through pads from a biphasic waveform defibrillator (E series; ZOLL Medical Corporation, Chelmsford, Mass.) placed on the shaved sides of the chest along the midaxillary line.
A 7 F fluid-filled catheter was advanced from the right femoral artery into the descending thoracic aorta to measure aortic pressure. A 7 F thermodilution balloon-tipped catheter was advanced through the right external jugular vein into the pulmonary artery to measure cardiac output, right atrial pressure, pulmonary artery pressure, and pulmonary artery occlusive pressure (Swan-Ganz, Edwards Lifesciences, Irvine, Calif.). […]

[5] = tested on: closed-chest swine model of VF; format: in vivo
Description: We used a swine model of VF and conventional closed-chest resuscitation with survival up to 240 minutes. We conducted 16 experiments in which 8 were randomized to receive EMPA and 8 to vehicle control given intravenously immediately before starting CPR.
Domestic pigs (35.2 to 39.6 kg) were sedated, anesthetized, intubated, and started on mechanical ventilation as for the experiments in the open-chest model. For blood sampling and measuring aortic pressures, a 6F dual lumen pressure monitoring catheter (Langston, Vascular Solutions) was advanced through the right femoral artery past the bifurcation and into the descending thoracic aorta. For measuring left ventricular pressures, a 7F fluid-filled pigtail catheter (Langston, Vascular Solutions) was advanced through the surgically exposed right carotid artery and into the left ventricle. For blood sampling and for measuring core temperature, cardiac output by thermodilution technique, and pressures in the right atrium and pulmonary artery, a balloon-tipped pulmonary artery catheter (Swan-Ganz, Edwards Lifesciences, Irvine, Calif.) was advanced through the right external jugular vein and into the pulmonary artery. For induction of VF, a 5F pacing electrode was advanced through the right internal jugular vein into the right ventricle (FIG. 4).
VF was induced by delivering an alternating current (1-10 mA) to the right ventricular endocardium and left untreated without ventilation for 10 minutes. At the end of untreated VF, chest compressions were started using a mechanical compressor (Michigan Thumper Model 1007, Grand Rapids, Mich.) set to compress the chest at a rate of 100 per minute with its depth titrated attempting to generate an aortic diastolic pressure of at least 25 mmHg but without exceeding a maximum compression depth of 5 cm. Ventilation with 100% oxygen was delivered using a 350-ml self-inflating pediatric bag (Lifesaver Resuscitation Bags; Teleflex Medical, N.C.). Compressions and ventilations were delivered sequentially as recommended when the airway is un-protected. Accordingly, 30 chest compressions were delivered in 18 seconds followed by 2 breaths during a 6 second compression pause. Electrical shocks were delivered through the chest pads using a biphasic waveform defibrillator (R series Zoll Corp.) with the energy set at 200-J. Shocks were delivered guided by the likelihood of successful resuscitation using an algorithm developed by us based on real-time monitoring of the VF waveform in the frequency domain known as amplitude spectral area (AMSA).^24 Epinephrine (1 mg-bolus dose; 1 ml) was delivered through the pulmonary artery catheter into the right atrium and the line flushed with 10 ml of 0.9% NaCl. The timing of epinephrine delivery was based on an AMSA advisory criterion avoiding delivery if AMSA predicted a high likelihood of shock success within the ensuing 120 seconds, with a minimum interval between doses of 240 seconds. The purpose of AMSA advisory criteria was to minimize administration of epinephrine—given its known adverse post-resuscitation effects—if not required for successful resuscitation.^25,26 Animals that achieved ROSC received 0.9% NaCl (30 ml/kg) at the maximum pump rate (999 ml/h) and were monitored for up to 240 minutes, euthanizing those that survived by delivering a right atrial bolus of KCl (150 mg/kg).
For these experiments we used a higher EMPA dose corresponding to 0.5 mg/kg.
For this purpose, a stock solution was prepared by dissolving 90.2 mg of EMPA (Sigma, St. Louis, Mo., MW 450.92) in 8 ml of 100% DMSO to obtain a […] solution. This stock solution was diluted in saline to 5 mM. Given an estimated blood volume of 2.5 L for a 40-kg pig, 44.64 μmoles (i.e., 8.9 ml of the 5 mM solution) of EMPA was given in bolus dose into the right atrium immediately before starting CPR to attain the target blood concentration of 17.8 μM (0.8026 mg/di) after initial blood volume distribution. […]

[6] = tested on: patients with type 2 diabetes; details: cited from earlier work
[7] = tested on: isolated mice hearts; details: cited from earlier work
[8] = tested on: obese rats with diastolic dysfunction; details: cited from earlier work
[9] = 25 mg oral dose in humans; cited from earlier work
[10] = tested on: isolated cardiomyocytes; details: cited from earlier work
[11] = tested on: CaMKII; details: 24 hours exposure; cited from earlier work
[12] = dose 0.5 mg/kg; cited from earlier work
[13] = tested on: swine model of cardiac arrest; details: given immediately before starting CPR; cited from earlier work
[14] = vs control, statistically significant

For `Cc1ccc([C@@H]2O[C@H](CO)[C@@H](O)[C@H](O)[C@H]2O)cc1Cc1ccc(-c2ccc(F)cc2)s1` [canagliflozin], the “reductions in infarct size” value [1] is given as “up to 60%”, the infarct size [2] is given as “reduced” and the “systolic and diastolic dysfunction” value [2] is given as “ameliorated”. For the same molecule, the “stroke volume and cardiac output after reperfusion” value [3] was “better”.
In the case of `OC[C@H]1O[C@@H](c2ccc(Cl)c(Cc3ccc(O[C@H]4CCOC4)cc3)c2)[C@H](O)[C@@H](O)[C@@H]1O` [EMPA, Empagliflozin], the “myocardial changes during the resuscitation effort” value ([4]; between EMPA and control groups) is reported as “no myocardial differences”, the “increases in Tau, the relaxation time constant, post-resuscitation” value ([4]; developed in control animals) is reported as “not observed” and the “progressive left ventricular wall thickening post-resuscitation” value ([4]; developed in control animals) is reported as “not observed”. For the same molecule, the “cumulative energy required to terminate VF” value ([4]; same in both groups) was 60 J, the “NE doses received post-resuscitation” value ([4]; vs control) was “lower” and the PETCO2 post-resuscitation ([4]; vs control) was “markedly higher”. For the same molecule, the heart rate post-resuscitation ([4]; vs control, n=3 per group, not statistically significant) was “lower”, the MAP post-resuscitation ([4]; vs control, n=3 per group, statistically significant) was “statistically significant higher” and the “coronary vascular resistance post-resuscitation” value ([4]; vs control, did not achieve statistical significance) was “slightly lower”. For the same molecule, the “LAD blood flow post-resuscitation” value [4, 14] was “substantially higher”, the cardiac index post-resuscitation [4, 14] was “markedly higher” and the “left ventricular stroke work index post-resuscitation” value [4, 14] was “higher”. The “stroke volume index post-resuscitation” value [4, 14] was “higher”, the “end-tidal PCO2 during CPR” value ([5]; 0.5 mg/kg, n=8, comparator 29±7) was 36±7 mmHg and the “left ventricular stroke work index post-resuscitation” value ([5]; vs comparator) was “higher”. For the same molecule, the “mean arterial pressure post-resuscitation” value ([5]; vs comparator) was “lower”, the “stroke volume index post-resuscitation” value ([5]; vs comparator) was “higher” and the “systemic vascular resistance post-resuscitation” value ([5]; vs comparator) was “lower”. For the same molecule, the cardiac index post-resuscitation ([5]; vs comparator, average of 120, 180, 240 min) was “higher”, the “pulmonary vascular resistance post-resuscitation” value ([5]; vs comparator, not shown) was “lower” and the “reduction in the relative risk of cardiovascular death” value [6] was 38%. For the same molecule, the “risk reduction of hospitalization for heart failure” value [6] was 35%, the “onset of myocardial contracture during ischemia” value ([7]; EMPA 1 μM, 18 minutes prior to ischemia and 25 minutes of ischemia) was “delayed” and the infarct size ([7]; global ischemia and reperfusion) was “reduced”. The isovolumic relaxation time ([8]; after 30 minutes) was “improved”, the blood concentration ([8]; single EMPA injection, obese rats) was 8.68 µM and the blood concentration [9] was 0.69 µM. The “cytosolic sodium and cytosolic calcium” value [10] was “reductions”, the CaMKII activity [11] was “reduction” and the adverse effect [12] was “had not shown adverse effect”.
In the case of `CC(C)c1ccc(C(=O)NC(=N)N)cc1S(C)(=O)=O` [cariporide], the “myocardial wall thickening and reduction in left ventricular cavity size” value [13] is listed as “significant amelioration”.

Reference: patent US11786540B2, “Gliflozins and a method for their delivery during resuscitation from cardiac arrest to improve survival outcomes” (Rosalind Franklin University of Medicine and Science, priority 2020, dated 2023)
